Experimental data taken from PMC3173955, “Antifungal Activities of Peptides Derived from Domain 5 of High-Molecular-Weight Kininogen” (International Journal of Peptides, 2011).
Peptide text beside a SMILES is read from it.

What was measured:
[1] = test system: C. parapsilosis ATCC 90018; experiment: Radial diffusion assay (RDA); assay type: cell-based, Candida parapsilosis; conditions: 6 μl of peptide per well (Figure 2(b))
Protocol: Radial diffusion assay (RDA) was performed as described by Lehrer et al. with some minor modifications. Candida was grown for 16 h at 28°C in 10 mL YPD to obtain yeast form organisms. The culture was centrifuged at 2000 ×g for 10 min then washed three times with 10 mM Tris, pH 7.4. A volume containing 1 × 10^5 cfu was added to 5 mL of previously autoclaved, 42°C, underlay agarose gel that contained 1.5 mg of Tryptic Soy Broth (TSB) base, 50 mg of low-electroendosmosistype (Low-EEO) agarose type I (A-6013-25G) (Sigma-Aldrich Inc, St. Louis, Mo, USA), and 1 μL of Tween 20 (0.02% w/v) (Sigma Chemical Co.) dissolved in 10 mM Tris, pH 7.4. The fungi were directly dispensed into the agar and mixed with a vortex mixer for 10 seconds and then quickly poured out into a petri dish, 85 mm in diameter. Wells, 4 mm in diameter, were punched, and each well was then filled up with 6 μL of test sample. After incubation at 35–37°C for 3 h, 5 mL of overlay agarose gel, consisting of 300 mg TSB, 50 mg Low-EEO agarose dissolved in distilled sterilized water, was poured out on top of the underlay gel. The clear zone surrounding the wells, indicating antifungal activity, was measured after 18–24 h of incubation at 28°C. HMWK degradation products were tested for RDA inhibitory effects (Figure 1(b)). […]

C. albicans ATCC 90028 = experiment: Radial diffusion assay (RDA), low salt; assay type: cell-based, Candida albicans; conditions: 6 μL at 100 μM; for Antifungal activity in RDA: low salt conditions (Figure 2(c))
Protocol: Radial diffusion assay (RDA) was performed as described by Lehrer et al. with some minor modifications. Candida was grown for 16 h at 28°C in 10 mL YPD to obtain yeast form organisms. The culture was centrifuged at 2000 ×g for 10 min then washed three times with 10 mM Tris, pH 7.4. A volume containing 1 × 10^5 cfu was added to 5 mL of previously autoclaved, 42°C, underlay agarose gel that contained 1.5 mg of Tryptic Soy Broth (TSB) base, 50 mg of low-electroendosmosistype (Low-EEO) agarose type I (A-6013-25G) (Sigma-Aldrich Inc, St. Louis, Mo, USA), and 1 μL of Tween 20 (0.02% w/v) (Sigma Chemical Co.) dissolved in 10 mM Tris, pH 7.4. The fungi were directly dispensed into the agar and mixed with a vortex mixer for 10 seconds and then quickly poured out into a petri dish, 85 mm in diameter. Wells, 4 mm in diameter, were punched, and each well was then filled up with 6 μL of test sample. After incubation at 35–37°C for 3 h, 5 mL of overlay agarose gel, consisting of 300 mg TSB, 50 mg Low-EEO agarose dissolved in distilled sterilized water, was poured out on top of the underlay gel. The clear zone surrounding the wells, indicating antifungal activity, was measured after 18–24 h of incubation at 28°C. HMWK degradation products were tested for RDA inhibitory effects (Figure 1(b)). Human leukocyte (neutrophil) elastase (HLE) and freeze-thaw-disrupted polymorphonuclear neutrophils (PMNs) at equivalent concentrations as used in the HMWK degradation were incubated at 37°C for 60 minutes and added as controls (Figure 1(b)).

M. furfur ATCC 44342 = assay type: cell-based, Malassezia furfur; conditions: for MIC (concentration yielding at least 95% inhibition of fungal growth): ATCC 44342, 24 h
Protocol: Malassezia furfur ATCC 44342 (CCUG 24230) was obtained from the Department of Bacteriology at Skåne University Hospital. The antifungal activity was tested in an assay described by Lopez-[…] et al., but with some minor modifications. Cells were cultured for 2 days at 37 °C in 10 mL medium containing 4% Bacto Malt Extract (Becton, Dickinson and Company, Md, USA), 1% glucose (VWR international), 1% Tween 80 (Sigma-Aldrich, St. Louis, Mo, USA) and 0.6% Bacto Peptone (Becton, Dickinson and Company, Md, USA). Cells were then washed in 1 mM sodium phosphate buffer, pH 7.4. M. furfur cells were grown in sterile 96-well microtiter plates (Costar, Corning Incorporated, Corning, USA) in a total volume of 100 μL, containing 60 μL of 1 mM sodium phosphate buffer, pH 7.4, 20 μL of culture medium, 10 μL of a 10x stock solution of the synthetic peptides, and a 10x stock solution of the fungal cell suspension, resulting in a final concentration of 1-2 × 10^5 cells/mL. Chloramphenicol was added to each well (16 μg/ml) to avoid contamination. The cells were incubated at 30°C for 24 h. To quantify the fungicidal activity, serial dilutions of the incubation mixture were plated onto agar plates and incubated 72 h at 37°C, and the number of cfu thereafter was determined by counting visible colonies. The minimal inhibitory concentration (MIC) was defined as the concentration which yielded at least 95% inhibition of fungal growth.

[2] = test system: C. parapsilosis ATCC 90018; assay type: cell-based, Candida parapsilosis
Protocol: C. albicans ATCC 90028 and C. parapsilosis ATCC 90018 were obtained from the Department of Bacteriology Lund at Skåne University Hospital. Cells were precultured overnight on Sabouraud-dextrose-agar (Difco, Detroit, Mich) at 28°C, inoculated in 10 mL yeast extract-peptone-dextrose (YPD) broth (Sigma-Aldrich, St. Louis, Mo USA) at 28°C, and grown to mid-logarithmic phase. The cells were washed three times and diluted in 10 mM Tris, pH 7.4. Fifty μL of a suspension containing 1 × 10^6 fungal colony-forming units (cfu)/mL was incubated at 28°C for two hours with rD5, HKH20 at concentrations ranging from 0.3 μM to 60 μM, or the peptides HKH20, GKH17, GKH17WWW, and GKH17WWWWW at a concentration of 30 μM. To quantify the fungicidal activity, serial dilutions of the incubation mixture were plated onto Sabouraud-dextrose-agar plates (Difco, Detroit, Mich) and incubated for 48 h at 28°C, and the number of cfu were thereafter determined by counting visible colonies. Activity of 30 μM HKH20, GKH17, GKH17WWW, and GKH17WWWWW peptides against Candida was also tested in physiological salt conditions (0.15 M NaCl in 10 mM Tris, pH 7.4) in presence of 20% as well as 50% human plasma, and 50% human serum (in 0.15 M NaCl, 10 mM Tris, pH 7.4) (Figure 3). […]

[3] = Liposome leakage assay (carboxyfluorescein release); conditions: DOPC/sterol 60/40 mol/mol, 10 μM lipid in 10 mM Tris, 5 mM glucose, pH 7.4, 37°C, CF fluorescence at 520 nm, at least duplicate (Figure 4)
Excerpt: The liposomes investigated were zwitterionic DOPC/cholesterol (60/40 mol/mol) or DOPC/ergosterol (60/40 mol/mol). DOPC (1,2-Dioleoyl-sn-Glycero-3-Phosphatidylcholine) was from Avanti Polar Lipids (Alabaster, USA) and of >99% purity, while ergosterol and cholesterol (>99% purity) were from Sigma-Aldrich (St. Louis, USA). Due to the long, symmetric, and unsaturated acyl chains of DOPC, several methodological advantages are reached. In particular, membrane cohesion is good, which facilitates very stable unilamellar liposomes, allowing detailed values on leakage to be obtained. The lipid mixtures were dissolved in chloroform, after which solvent was removed by evaporation under vacuum overnight. Subsequently, 10 mM Tris buffer, pH 7.4, was added together with 0.1 M carboxyfluorescein (CF) (Sigma, St. Louis, USA). After hydration, the lipid mixture was subjected to eight freeze-thaw cycles consisting of freezing in liquid nitrogen and heated to 60°C. Unilamellar liposomes of about Ø140 nm were generated by multiple extrusions through polycarbonate filters (pore size 100 nm) mounted in a LipoFast miniextruder (Avestin, Ottawa, Canada) at 22°C. […] CF release from the liposomes was determined by monitoring the emitted fluorescence at 520 nm from a liposome dispersion (10 μM lipid in 10 mM Tris, 5 mM glucose, pH 7.4). […]

## NCCCC[C@H](NC(=O)CNC(=O)[C@H](CC(N)=O)NC(=O)[C@H](CCCCN)NC(=O)[C@H](CCCCN)NC(=O)CNC(=O)[C@H](CCCCN)NC(=O)[C@H](CC(N)=O)NC(=O)[C@H](CCCCN)NC(=O)[C@H](Cc1c[nH]cn1)NC(=O)[C@H](CCCCN)NC(=O)CNC(=O)[C@H](Cc1c[nH]cn1)NC(=O)CNC(=O)[C@H](Cc1c[nH]cn1)NC(=O)CNC(=O)[C@H](Cc1c[nH]cn1)NC(=O)[C@H](CCCCN)NC(=O)[C@@H](N)Cc1c[nH]cn1)C(=O)N[C@@H](Cc1c[nH]cn1)C(=O)O [HKH20] (H-HKHGHGHGKHKNKGKKNGKH-OH; N-terminus and C-terminus assumed)
[1]
  Inhibitory activity in RDA compared with reference peptides: significantly higher inhibitory activity on Candida, when compared with LL-37
C. albicans ATCC 90028
  Antifungal activity in RDA: showed antifungal activity
C. albicans ATCC 90028; low salt, P < 0.05 (Figure 2(c))
  Inhibitory activity in RDA in comparison to LL-37: significantly more potent inhibitory activity on Candida, in comparison to LL-37
M. furfur ATCC 44342; 10 μM or 30 μM, 24 h (Figure 2(e))
  Antifungal activity against M. furfur at fixed concentrations: antifungal at 10 and 30 μM
M. furfur ATCC 44342
  MIC (concentration yielding at least 95% inhibition of fungal growth): 2.5 to 5 µM
[2]; 0.3 μM to 60 μM, 1 × 10^6 cfu/mL, 2 h at 28°C, 10 mM Tris pH 7.4 (Figure 2(a))
  Antifungal activity in viable count assay: potent antifungal activity
[2]; ATCC 90018, 48 h, 30 μM, pH 7.4
  Candida cells killed (time-dependent killing): > 80%

## GKHKNKGKKNGKHNGWKWWW [GKH17WWW, GKH17 hydrophobically end-tagged with three W residues at the C-terminal]
[3]
  Membrane-disruptive potency, ergosterol- versus cholesterol-containing liposomes: higher for ergosterol-containing liposomes than for cholesterol-containing ones

## GGHVLDHGHKHKHGHGHGKH [GGH20]
C. albicans ATCC 90028
  Antifungal activity in RDA: showed antifungal activity

## NCCCC[C@H](NC(=O)[C@H](Cc1c[nH]c2ccccc12)NC(=O)CNC(=O)[C@H](CC(N)=O)NC(=O)[C@H](Cc1c[nH]cn1)NC(=O)[C@H](CCCCN)NC(=O)CNC(=O)[C@H](CC(N)=O)NC(=O)[C@H](CCCCN)NC(=O)[C@H](CCCCN)NC(=O)CNC(=O)[C@H](CCCCN)NC(=O)[C@H](CC(N)=O)NC(=O)[C@H](CCCCN)NC(=O)[C@H](Cc1c[nH]cn1)NC(=O)[C@H](CCCCN)NC(=O)CN)C(=O)O [GKH17] (H-GKHKNKGKKNGKHNGWK-OH)
M. furfur ATCC 44342
  MIC (concentration yielding at least 95% inhibition of fungal growth): 5 to 10 µM
